Data: patent US20110224160A1, “Use of Escin for Treatment of Type IV Hypersensitivity Reaction” (MARINOMED BIOTECHNOLOGIE GMBH, priority 2008, published 2011)

Key:
[1] = tested on: oxazolone induced topical inflammation in BALB/c mice; assay: oxazolone induced contact dermatitis model (ear swelling); format: in vivo
Experimental: FIG. 1: Efficacy of escin in an oxazalone induced contact dermatitis model. 3 mg/kg of escin were applied intraperitoneally (ip.) 6 h before challenge, 0.9% saline solution served as a vehicle. […] Bars represent the mean of five animals, SEM is indicated.
Escin was evaluated for anti-inflammatory activity by ip. injection in the oxazolone induced topical inflammation in BALB/c mice, which is a model of type IV hypersensitivity reaction, in particular contact dermatitis. The swelling of the challenged ear in comparison to the unchallenged control was determined as a parameter for induced contact dermatitis.

[2] = tested on: LPS mediated release of TNF alpha; assay: LPS mediated release of TNF alpha in primary human blood; format: cell-based
[3] = tested on: strong hypersensitivity reactions; assay: strong hypersensitivity reactions in an in vivo model

escin
inhibition of oxazolone induced ear swelling ([1]; BALB/c mice, escin 3 mg/kg ip., 6 hours after oxazolone application, challenged vs unchallenged ear): significant inhibition | induced topical inflammation in a mouse model of contact dermatitis ([1]; mouse model of contact dermatitis): reduced induced topical inflammation | LPS mediated release of TNF alpha [2]: inhibits dose-dependently | effects of strong hypersensitivity reactions [3]: reduces the effects of strong hypersensitivity reactions
